Results: patent publication US20230312601A1, “THIAZOLO[5,4-B]PYRIDINE MALT-1 INHIBITORS” (AbbVie Inc., priority 2022, published 2023)

Assays:
human MALT-1 protein = human MALT-1 protein (Homo sapiens (Human), UniProt Q9UDY8); assay: MALT-1 Biochemical Assay (Quench-FRET enzyme assay); conditions: human MALT-1 6 nM, substrate 2 μM, 40 min preincubation
Procedure, shortened: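 Human MALT-1 (6 nM) preincubated 40 min at room temperature with compound in pH 7.5 HEPES buffer containing 0.8 M sodium citrate and 2 mM DTT. Then 2 μM quenched TAMRA/QSY7 peptide substrate added for 60 min. Cleavage read by fluorescence (Ex 535/Em 590); EC50 is half-maximal inhibition of protease activity.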

OCI-LY3 IL6 = assay: MALT-1 Cell IL-6 AlphaLISA Assay; format: cell-based; conditions: Homo sapiens; OCI-LY3 cells, 48 hours incubation; read-out: OCI-LY3 IL6 48 hour Inhibition EC50
Procedure, shortened: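 MALT-1-dependent ABC-DLBCL OCI-LY3 cells were seeded at 50,000 cells/mL onto compound (30 μM to 1.5 nM) and incubated 48 hours at 37° C. Secreted human IL-6 in the medium was measured by AlphaLISA with acceptor beads, biotinylated anti-IL-6 antibody and streptavidin donor beads.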

male Sprague-Dawley rats = assay: Cardiovascular Assay in anesthetized rats; format: in vivo; conditions: rat; for HR (%) / MAP (%) / dP/dt@50 (%): change from vehicle; for Drug (μg/mL SEM): plasma at end of infusion
Description: The following cardiovascular assay was conducted using male Sprague-Dawley rats that were anesthetized with Inactin (thiobutabarbital), instrumented (catheterized both femoral artery and vein; catheterize left ventricular) and allowed to stabilize. Following a 30-minute baseline period, each compound was infused at low, medium, and high doses/30 minutes. Plasma samples were taken at the end of each dose infusion. If, at any point, the mean arterial pressure (MAP) of an animal decreased below 70 mmHg, the infusion was immediately stopped, a final blood sample was taken, and hemodynamic data for that animal was removed from the group average for all subsequent time points. A 15% change from vehicle for MAP or heart rate (HR), respectively, is considered biologically relevant. A 20% change from vehicle for dP/dt@50 is considered biologically relevant.

CYP 3A4 mRNA = assay: CYP3A4 Induction Assay (qPCR, human hepatocytes); format: in vitro ADME; conditions: 10 μM compound, relative to rifampicin 10 μM
Procedure, shortened: (§1)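 Cryopreserved human hepatocytes (60,000 cells/well), overlaid with Geltrex, were dosed at 10 μM final, with omeprazole, rifampicin and probenecid as controls. RNA was isolated on day 3. CYP3A4 mRNA was measured by TaqMan RT-qPCR with GAPDH as the reference gene.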

CYP3A4 mRNA = assay: CYP3A4 Induction Assay (qPCR, human hepatocytes); format: in vitro ADME; conditions: cryopreserved human hepatocytes (plated), 10 μM compound, mRNA fold over vehicle (0.1% DMSO)
Procedure, shortened: as §1

Sequence of human MALT-1 protein (Q9UDY8 whole entry): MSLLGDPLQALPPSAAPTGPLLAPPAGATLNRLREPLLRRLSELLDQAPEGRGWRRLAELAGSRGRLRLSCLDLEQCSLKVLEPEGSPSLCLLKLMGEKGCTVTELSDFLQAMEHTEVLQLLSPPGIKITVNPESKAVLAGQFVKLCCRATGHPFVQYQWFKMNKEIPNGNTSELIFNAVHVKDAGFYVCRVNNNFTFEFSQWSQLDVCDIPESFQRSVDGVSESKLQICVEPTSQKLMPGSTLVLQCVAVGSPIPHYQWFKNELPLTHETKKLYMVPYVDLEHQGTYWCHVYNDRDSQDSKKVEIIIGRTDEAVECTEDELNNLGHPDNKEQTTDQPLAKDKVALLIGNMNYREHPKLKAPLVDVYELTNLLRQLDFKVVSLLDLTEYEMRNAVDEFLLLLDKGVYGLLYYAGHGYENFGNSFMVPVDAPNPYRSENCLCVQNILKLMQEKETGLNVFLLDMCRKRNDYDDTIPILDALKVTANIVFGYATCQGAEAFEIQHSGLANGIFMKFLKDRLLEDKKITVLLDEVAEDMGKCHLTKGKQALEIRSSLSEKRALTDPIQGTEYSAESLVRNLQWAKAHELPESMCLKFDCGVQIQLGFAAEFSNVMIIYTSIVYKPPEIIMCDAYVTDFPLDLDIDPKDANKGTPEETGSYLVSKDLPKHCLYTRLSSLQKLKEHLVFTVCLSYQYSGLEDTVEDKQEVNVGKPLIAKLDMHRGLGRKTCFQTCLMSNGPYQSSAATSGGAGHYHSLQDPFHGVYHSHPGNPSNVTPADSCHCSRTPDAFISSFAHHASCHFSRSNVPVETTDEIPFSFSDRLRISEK

Compound	EC50 (human MALT-1 protein) [nM]	EC50 (OCI-LY3 IL6) [nM]	CYP3A4 % of positive control (%) (CYP 3A4 mRNA)	fold induction at 1 day, 10 µM (CYP3A4 mRNA)	HR (%) (male Sprague-Dawley rats; dose 3 mg/kg)	MAP (%) (male Sprague-Dawley rats; dose 3 mg/kg)	dP/dt@50 (%) (male Sprague-Dawley rats; dose 3 mg/kg)	HR (%) (male Sprague-Dawley rats; dose 10 mg/kg)	MAP (%) (male Sprague-Dawley rats; dose 10 mg/kg)	dP/dt@50 (%) (male Sprague-Dawley rats; dose 10 mg/kg)	HR (%) (male Sprague-Dawley rats; dose 30 mg/kg)	MAP (%) (male Sprague-Dawley rats; dose 30 mg/kg)	dP/dt@50 (%) (male Sprague-Dawley rats; dose 30 mg/kg)	Drug (μg/mL SEM) (male Sprague-Dawley rats; dose 3 mg/kg) [µg/mL]	Drug (μg/mL SEM) (male Sprague-Dawley rats; dose 10 mg/kg) [µg/mL]	Drug (μg/mL SEM) (male Sprague-Dawley rats; dose 30 mg/kg) [µg/mL]
CO[C@@H](C)c1c(Nc2ccc([C@@H](C(F)F)N(C)C(=O)C3CCN(C(=O)CO)CC3)cc2)cnc2sc(C)nc12 [Example 28, N-{(1S)-2,2-difluoro-1-[4-({7-[(1S)-1-methoxyethyl]-2-methyl[1,3]thiazolo[5,4-b]pyridin-6-yl}amino)phenyl]ethyl}-1-(hydroxyacetyl)-N-methylpiperidine-4-carboxamide]	138	420	(15.1) %	2.24	–	–	–	–	–	–	–	–	–	–	–	–
CO[C@@H](C)c1c(Nc2ccc([C@@H](C(F)F)N(C)C(=O)C3CCN(C(C)=O)CC3)cc2)cnc2sc(C)nc12 [Example 29, 1-acetyl-N-{(1S)-2,2-difluoro-1-[4-({7-[(1S)-1-methoxyethyl]-2-methyl[1,3]thiazolo[5,4-b]pyridin-6-yl}amino)phenyl]ethyl}-N-methylpiperidine-4-carboxamide]	232	300	(27.8) %	3.29	–	–	–	–	–	–	–	–	–	–	–	–
CO[C@@H](C)c1c(Nc2ccc([C@H](N(C)C(=O)C3CCN(C(=O)[C@@H](O)CO)CC3)C(F)(F)F)cc2)cnc2sc(C)nc12 [Example 30, 1-[(25)-2,3-dihydroxypropanoyl]-N-methyl-N-{(1S)-2,2,2-trifluoro-1-[4-({7-[(1S)-1-methoxyethyl]-2-methyl[1,3]thiazolo[5,4-b]pyridin-6-yl}amino)phenyl]ethyl}piperidine-4-carboxamide]	82	710	(5) %	1.49	–	–	–	–	–	–	–	–	–	–	–	–
CO[C@H](c1c(Nc2ccc([C@@H](C(F)F)N(C)C(=O)C3CCN(C(=O)CO)CC3)cc2)cnc2sc(C)nc12)C(F)F [Example 31, N-{(1S)-1-[4-({7-[(1R)-2,2-difluoro-1-methoxyethyl]-2-methyl[1,3]thiazolo[5,4-b]pyridin-6-yl}amino)phenyl]-2,2-difluoroethyl}-1-(hydroxyacetyl)-N-methylpiperidine-4-carboxamide]	82	440	(4.87) %	1.37	–	–	–	–	–	–	–	–	–	–	–	–
CO[C@H](C)c1c(Nc2ccc([C@H](N(C)C(=O)C3CCN(C(=O)CO)CC3)C(F)(F)F)cc2)cnc2sc(C)nc12 [Example 34, 1-(hydroxyacetyl)-N-methyl-N-1{(1S)-2,2,2-trifluoro-1-[4-({7-[(1R)-1-methoxyethyl]-2-methyl[1,3]thiazolo[5,4-b]pyridin-6-yl}amino)phenyl]ethyl}piperidine-4-carboxamide]	112	190	(13) %	2.11	–	–	–	–	–	–	–	–	–	–	–	–
CO[C@H](c1c(Nc2ccc([C@@H](C(F)F)N(C)C(=O)C3CCN(C(=O)CO)CC3)cc2)cnc2sc(C)nc12)C(F)(F)F [Example 36, N-{(1S)-2,2-difluoro-1-[4-({2-methyl-7-[(1R)-2,2,2-trifluoro-1-methoxyethyl][1,3]thiazolo [5,4-b]pyridin-6-yl}amino)phenyl]ethyl}-1-(hydroxyacetyl)-N-methylpiperidine-4-carboxamide]	48	270	(14.4) %	1.9	–	–	–	–	–	–	–	–	–	–	–	–
CO[C@H](c1c(Nc2ccc([C@@H](C(F)F)N(C)C(=O)C3CCN(C(C)=O)CC3)cc2)cnc2sc(C)nc12)C(F)(F)F [Example 37, 1-acetyl-N-{(1S)-2,2-difluoro-1-[4-({2-methyl-7-[(1R)-2,2,2-trifluoro-1-methoxyethyl][1,3]thiazolo[5,4-b]pyridin-6-yl}amino)phenyl]ethyl}-N-methylpiperidine-4-carboxamide]	60	210	(19) %	2.19	–	–	–	–	–	–	–	–	–	–	–	–

Second part, led by results:

EC50 (human MALT-1 protein) [nM]	EC50 (OCI-LY3 IL6) [nM]	CYP3A4 % of positive control (%) (CYP 3A4 mRNA)	fold induction at 1 day, 10 µM (CYP3A4 mRNA)	Compound	HR (%) (male Sprague-Dawley rats; dose 3 mg/kg)	MAP (%) (male Sprague-Dawley rats; dose 3 mg/kg)	dP/dt@50 (%) (male Sprague-Dawley rats; dose 3 mg/kg)	HR (%) (male Sprague-Dawley rats; dose 10 mg/kg)	MAP (%) (male Sprague-Dawley rats; dose 10 mg/kg)	dP/dt@50 (%) (male Sprague-Dawley rats; dose 10 mg/kg)	HR (%) (male Sprague-Dawley rats; dose 30 mg/kg)	MAP (%) (male Sprague-Dawley rats; dose 30 mg/kg)	dP/dt@50 (%) (male Sprague-Dawley rats; dose 30 mg/kg)	Drug (μg/mL SEM) (male Sprague-Dawley rats; dose 3 mg/kg) [µg/mL]	Drug (μg/mL SEM) (male Sprague-Dawley rats; dose 10 mg/kg) [µg/mL]	Drug (μg/mL SEM) (male Sprague-Dawley rats; dose 30 mg/kg) [µg/mL]
91	200	(5.46) %	1.45	CO[C@@H](C)c1c(Nc2ccc([C@H](N(C)C(=O)C3CCS(=O)(=O)CC3)C(F)(F)F)cc2)cnc2sc(C)nc12 [Example 1, N-methyl-1,1-dioxo-N-{(1S)-2,2,2-trifluoro-1-[4-({7-[(1S)-1-methoxyethyl]-2-methyl[1,3]thiazolo[5,4-b]pyridin-6-yl}amino)phenyl]ethyl}-1λ^6-thiane-4-carboxamide]	−4	−5	5	−8	−8	12	−17	−16	11	2.32 ± 0.12	9.36 ± 0.41	24.00 ± 1.63
110	140	(1.75) %	1.12	CO[C@H](c1c(Nc2ccc([C@H](N(C)C(=O)C3CCS(=O)(=O)CC3)C(F)(F)F)cc2)cnc2sc(C)nc12)C(F)F [Example 3, N-{(1S)-1-[4-({7-[(1R)-2,2-difluoro-l-methoxyethyl]-2-methyl[1,3]thiazolo[5,4-b]pyridin-6-yl}amino)phenyl]-2,2,2-trifluoroethyl} -N-methyl-1,1-dioxo-1λ^6-thiane-4-carboxamide]	−1	1	0	−3	0	3	−12	−13	−3	2.18 ± 0.10	8.34 ± 0.55	22.87 ± 2.67
198	950	(−0.162) %	0.985	CO[C@@H](C)c1c(Nc2ccc([C@H](N(C)C(=O)C3CCN(C(C)=O)CC3)C(F)(F)F)cc2)cnc2sc(C)nc12 [Example 19, 1-acetyl-N-methyl-N-{(1S)-2,2,2-trifluoro-1-[4-({7-[(1S)-1-methoxyethyl]-2-methyl[1,3]thiazolo [5,4-b]pyridin-6-yl}amino)phenyl]ethyl}piperidine-4-carboxamide]	−5	0	−5	−5	−1	−5	−9	−2	−3	2.51 ± 0.29	8.92 ± 0.73	25.13 ± 0.98
113	250	(2.56) %	1.2	CO[C@@H](c1c(Nc2ccc([C@H](N(C)C(=O)C3CCN(C(=O)CO)CC3)C(F)(F)F)cc2)cnc2sc(C)nc12)C(F)F [Example 32, N-{(1S)-1-[4({7-[(1S)-2,2-difluoro-1-methoxyethyl]-2-methyl[1,3]thiazolo [5,4-b]pyridin-6-yl}amino)phenyl]-2,2,2-trifluoroethyl}-1-(hydroxyacetyl)-N-methylpiperidine-4-carboxamide]	–	–	–	–	–	–	–	–	–	–	–	–
162	180	(20.2) %	2.72	CO[C@@H](c1c(Nc2ccc([C@H](N(C)C(=O)C3CCN(C(C)=O)CC3)C(F)(F)F)cc2)cnc2sc(C)nc12)C(F)F [Example 33, 1-acetyl-N-{(1S)-1-[4-({7-[(1S)-2,2-difluoro-1-methoxyethyl]-2-methyl[1,3]thiazolo [5,4-b]pyridin-6-yl}amino)phenyl]-2,2,2-trifluoroethyl}-N-methylpiperidine-4-carboxamide]	−5	−5	1	−7	−5	1	−8	−9	7	2.52 ± 0.39	11.20 ± 0.60	34.10 ± 1.95
500	7300	(17) %	2.45	CO[C@H](C)c1c(Nc2ccc([C@H](N(C)C(=O)C3CCN(C(C)=O)CC3)C(F)(F)F)cc2)cnc2sc(C)nc12 [Example 35, 1-acetyl-N-methyl-N-{(1S)-2,2,2-trifluoro-1-[4-({7-[(1R)-1-methoxyethyl]-2-methyl[1,3]thiazolo [5,4-b]pyridin-6-yl}amino)phenyl]ethyl}piperidine-4-carboxamide]	–	–	–	–	–	–	–	–	–	–	–	–
